Data taken from ChEMBL document CHEMBL1143226, “Potent inhibitors of the hedgehog signaling pathway” (J Med Chem, 2008).

Experiment: Antagonist activity at Hedgehog receptor expressed in 10t1/2 cells by Gli-luciferase reporter gene assay
Type: functional, cell-based

Structure (SMILES)	IC50
CC(NC(=O)Nc1cccc(C(F)(F)F)c1)c1nc2ccccc2c(=O)n1-c1ccc(F)cc1 (stereo not given)	4700 nM
CC(C)n1c(CNC(=O)Nc2cccc(C(F)(F)F)c2)nc2ccccc2c1=O	4300 nM
CCc1nc2ccccc2c(=O)n1-c1ccc(F)cc1	> 10000 nM
O=C(NCc1nc2ccccc2c(=O)n1-c1ccc(F)cc1)Nc1ccc(Cl)c(C(F)(F)F)c1	70 nM
O=C(NCc1nc2ccccc2c(=O)n1-c1ccc(F)cc1)Nc1cccc(C(F)(F)F)c1	700 nM
COc1cc(NC(=O)NCc2nc3ccccc3c(=O)n2-c2ccc(F)cc2)cc(C(F)(F)F)c1	250 nM
CN(Cc1nc2ccccc2c(=O)[nH]1)C(=O)Nc1cccc(C(F)(F)F)c1	> 10000 nM
CC(c1nc2ccccc2c(=O)n1-c1ccc(F)cc1)N(C)C(=O)Nc1cccc(C(F)(F)F)c1 (stereo not given)	1400 nM
O=C(NCc1nc2ccccc2c(=O)n1-c1ccc(F)cc1)Nc1cc(Cl)nc(Cl)c1	110 nM
CNC(C)c1nc2ccccc2c(=O)n1-c1ccc(F)cc1 (stereo not given)	> 10000 nM
